The record followed here is patent publication US10449183B2, “Methods for inhibiting preterm labor and uterine contractility disorders and preventing cervical ripening” (DIGNITY HEALTH, priority 2010, dated 2019).

For the assay, the system named is human myometrium. Kind of assay: Human myometrial contractility in vitro (organ chamber / muscle bath). Type of assay: cell-based. From the text:
The inventors tested whether a soluble form of progesterone would inhibit human myometrial contractility in vitro (FIG. 7). FIG. 7 is a schematic drawing of the muscle bath that is used to measure uterine contractility in vitro. The system consists of a water jacketed chamber to maintain temperature at 37 degrees and an inner chamber where the tissue is suspended in Krebs'-Ringer solution and bubbled with air. The tissue is connected to a force transducer and the signals from the transducer are amplified, stored and analyzed by a data acquisition system. The inventors examined the direct effects of various tocolytics on uterine contractility with and without progesterone, as it was possible that a tocolytic used with progesterone would produce additive, synergistic or antagonistic action on contractility.

As to `CC(=O)[C@H]1CC[C@H]2[C@@H]3CCC4=CC(=O)CC[C@]4(C)[C@H]3CC[C@]12C` [P4, progesterone], the “effect on human myometrial contractions” value (10^−4M progesterone) is recorded as “inhibited myometrial contractions”. Also, the “contractile inhibition of the combination” value runs as follows: (P4 (10^-5 M) with indomethacin (IND), term, not in labor) “increase contractile inhibition, by additive or synergistic actions”; (P4 (10^-5 M) with nifedipine (Nife), term, not in labor) “increase contractile inhibition, by additive or synergistic actions”. In addition, the “effect on pinacidil inhibition of contractility” value (P4 (10^−5M) with pinacidil (10^−6.5M), term, not in labor) was “decreases pinacidil inhibition of contractility”. For the same compound, the “effect on myometrial contractility” value (P4 soluble and crystalline in ETOH) was “inhibits myometrial contractility”.
